Results taken from article PMC10415136, “Reverse transcriptases prime DNA synthesis” (Nucleic Acids Research, 2023).

Experiments:
LlLtrA RT domain = target: T1, LlLtrA RT domain (Lactococcus cremoris, UniProt P0A3U0); test: gel-based primase assay; assay type: biochemical; settings: RNA template (oMZ27), gamma-phosphate FAM-labelled GTP, Mn2+
T1 construct: gene ltrA; RT domain aa 1-472, endonuclease domain removed; recombinant from E. coli; catalytic D308, D309
T1 sequence (P0A3U0 1-472): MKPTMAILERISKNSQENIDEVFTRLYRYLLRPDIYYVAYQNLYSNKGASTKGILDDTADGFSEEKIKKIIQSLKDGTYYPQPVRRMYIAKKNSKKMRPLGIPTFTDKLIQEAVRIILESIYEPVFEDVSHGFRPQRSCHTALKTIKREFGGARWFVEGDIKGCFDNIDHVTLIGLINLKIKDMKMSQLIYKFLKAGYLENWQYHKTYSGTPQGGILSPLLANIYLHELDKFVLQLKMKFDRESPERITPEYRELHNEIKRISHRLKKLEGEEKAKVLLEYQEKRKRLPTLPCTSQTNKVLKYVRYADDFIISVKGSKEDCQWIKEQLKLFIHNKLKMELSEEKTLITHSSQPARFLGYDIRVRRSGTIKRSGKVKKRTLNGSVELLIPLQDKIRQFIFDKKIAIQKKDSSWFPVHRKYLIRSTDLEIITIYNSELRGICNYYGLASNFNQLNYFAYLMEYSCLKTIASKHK

ScTy3 RT = target: T2, ScTy3 RT (Saccharomyces cerevisiae, UniProt Q99315); test: gel-based primase assay; assay type: biochemical; settings: DNA or RNA template, gamma-phosphate FAM-labelled GTP, Mn2+
T2 construct: gene TY3B-G; RT domain aa 1-339 of the mature RT from Ty3 Gag-Pol polyprotein, C-terminal MBP fusion; recombinant from E. coli
T2 sequence (Q99315 536-874): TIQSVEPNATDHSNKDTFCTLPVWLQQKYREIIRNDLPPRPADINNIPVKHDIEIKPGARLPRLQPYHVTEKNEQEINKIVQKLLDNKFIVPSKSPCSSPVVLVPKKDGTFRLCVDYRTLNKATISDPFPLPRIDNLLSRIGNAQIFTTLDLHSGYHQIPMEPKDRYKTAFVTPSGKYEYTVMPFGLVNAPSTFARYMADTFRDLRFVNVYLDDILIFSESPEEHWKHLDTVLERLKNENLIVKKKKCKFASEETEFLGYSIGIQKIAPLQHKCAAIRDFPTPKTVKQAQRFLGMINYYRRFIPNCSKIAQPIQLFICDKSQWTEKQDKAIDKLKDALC

gel-based primase assay (LlLtrA RT domain): LlLtrA RT is an RNA-dependent primase
Compound: Nc1nc2c(ncn2[C@H]2C[C@H](O)[C@@H](COP(=O)(O)OP(=O)(O)OP(=O)(O)O)O2)c(=O)[nH]1 [dGTP]
gel-based primase assay (ScTy3 RT): ScTy3 RT is efficient DNA and RNA-dependent primase
